Key:
HPK1 = HPK1 (Homo sapiens (Human), UniProt Q92918); assay: HPK1 biochemical assay (ADP-GLO Kinase Assay); conditions: ADP-GLO, 10 µM ATP, MBP substrate; read-out: HPK1 IC50
Description: This example used the ADP-GLO™ Kinase Assay to measure the effect of potential HPK1 inhibitor compounds on HPK1 kinase activity.
The ADP-GLO™ Kinase Assay (Promega Corp., Madison, WI) measures ADP formed from a kinase reaction. According to the manufacture, the ADP formed in a kinase assay is first converted into ATP, which is then used to generate light in a luciferase reaction. The luminescence generated correlates with kinase activity. An exemplary experimental setting is described below, though minor adjustments can be made in individual assays.
Serial 3-fold dilution of compoounds from 10 µM (top concentration) to 0.508 nM (lowest concentration). Positive control is 10 µM Reference + enzyme + substrate. Negative control is 1% DMSO + enzyme + substrate.
40 mM Tris pH7.5; 20 mM MgC12, 0.1 mg/ml BSA, 50 µM DTT Buffer stock
• 1) The compounds were diluted to 1 mM, by mixing 10 µL of 10 mM respective compound stocks with 90 µL of DMSO. • 2) The compounds were then diluted 3-fold for 10 doses (5 µL to 10 µL dilution) by BRAVO. The top compound conc. was 1 mM (100×), DMSO Conc. was 100%. • 3) Transfer 100 nL of each diluted compound sample to 384-well plate (Corning-4512) by ECHO. • 4) Centrifuge the plate at 1,500 rpm for 1 minute.
20 µM ATP, 0.2 µg/µL MBP in Kinase Buffer (final concentration: 10 µM ATP, 0.1 µg/µL MBP)
• 5. Preparation of 2× HPK1 working solution with assay buffer. HPK1 final concentration was 0.6 ng/µL. […] Add 5 µL/well of 2× HPK1 working solution, Centrifuge at 1,500 rpm for 1 minute. • 7. Add 5 µL/well of 2× ATP-Substrate, Centrifuge at 1,500 rpm for 1 minute. • 8. Incubate at 25° C. for 1 hour (or 6 hours for compounds with high potency). • 9. Add 5 µL/well ADP-GLO™ Reagent to stop the kinase reaction and deplete the unconsumed ATP. Centrifuge at 1,500 rpm for 1 minute. Incubate at 25° C. for 40 min. • 10. Add 10 µL of Kinase Detection Reagent to convert ADP to ATP. Centrifuge at 1,500 rpm for 1 minute. Incubate at 25° C. for 40 min. • 11. Record luminescence signal on an Envision plate reader (384-CTG).
The percent (%) inhibition at each concentration of compound is calculated based on and relative to the signal in the High and Low control wells contained within each assay plate. […] The concentrations and % inhibition values for tested compounds were plotted and the concentration of compound required for 50% inhibition (IC50) was determined with a Three-parameter logistic dose response equation. The endpoint value (IC50) for the reference peptide/compound was evaluated in each experiment as a quality control measure. If the endpoint value was within 3-fold of the expected value, then the experiment was deemed acceptable.

Human Pan T cells = assay: IL2 & IFN-γ released by human pan T cell (ELISA); type: cell-based; conditions: for EC50 / Human Pan T cells EC2x (nM, IL-2): IL-2, anti-CD3/CD28 stimulation, 48 hours; for Human Pan T cells EC2x (nM, IL-2): concentration giving 200% response (2 folds) over DMSO control; for Max fold change: IL-2 response over DMSO control, human pan T cells
Description: This example is an assay method that can be used to determine compound effects on IL2 & IFN-γ release using pan T cells and ELISA assay format.
Procedures for Pan T isolation and Reagent preparation (Day 0): • 1. Cell Growth Medium: • RPMI1640: ATCC, Cat# 30-2001 • 10% FBS: Gibco, Cat# 10099141 • 1% Pen-Strep: Gibco, Cat # 15140122 • 1% Non-essential amino: Gibco, Cat #11140050 • Beta- Mercaptoethanol: Gibco, Cat#21985023 • 2. Pan T isolation buffer preparation: • Prepare a solution containing phosphate-buffered saline (PBS), pH 7.2, 0.5% bovine serum albumin (BSA), and 2 mM EDTA by diluting MACS® BSA Stock Solution (# 130-091-376) 20 times with autoMACS® Rinsing Solution. Keep buffer at 4° C. Degas buffer before use, as air bubbles could block the column.
• 3. Thawing of frozen PBMC • 1) Pre-heat medium at 37° C. water bath. • 2) Rapidly thaw cells in 37° C. water bath. • 3) Add the pre-warmed medium into 15 mL tube. Transfer cells to the tube. • 4) 300 × g centrifuge for 8 min. (centrifuge increase 0, decrease 0). • 5) Wash the PBMC using Rinsing buffer. • 6) Centrifuge PBMC at 300 × g for 8 min, wash it twice (centrifuge increase 9, decrease 1). • 7) Resuspend the cells with Pan T cells isolation buffer and count cells number. • 4. Pan T cells isolation: • Cell staining with microbead cocktail • 1) Prepare cells and determine cell number. Filter cells by 70 µm cell strainer. • 2) Resuspend cell pellet in 40 µL of buffer per 10^7 total cells. • 3) Add 10 µL of Pan T Cell Biotin-Antibody Cocktail per 10^7 total cells. • 4) Mix well and incubate for 10 minutes in the refrigerator (ice). • 5) Add 30 µL of buffer per 10^7 total cells. • 6) Add 20 µL of Pan T Cell MicroBead Cocktail per 10^7 total cells. • 7) Mix well and incubate for 15 minutes in the refrigerator (ice). • 8) Proceed to subsequent magnetic cell separation.
Subsequent manual cell separation: • 1) Place LS Column in the magnetic field of a suitable MACS Separator. For details refer to the respective MACS Column data sheet. • 2) Prepare column by rinsing with 3 mL of buffer. • 3) Apply cell suspension onto the column. Collect flow-through, which represents the enriched T cells. • 4) Wash column with 5 mL of buffer. Collect unlabeled cells that pass through, representing the enriched T cells.
Reminder: Always wait until the column reservoir is empty before proceeding to the next step. • 5. Pan T cell FACS: • 1) Take out 50 µL of PBMC and Pan T cells to FACS tubes respectively. • 2) Incubate cells with anti-human CD3/CD4/CD8 antibodies (1 µL/1 µL/1 µL /tube) for 20 min at 4° C. For unstained control, incubate cells with FACS staining buffer. • 3) Wash 2 times with cold staining buffer (PBS with 0.2%BSA and 1 mM EDTA). • 4) Run FACS. Gate CD3^+, CD3^+CD4^+, and CD3^+CD8^+ population for % analysis. • 5) If the purity of Pan T cells is higher than 90%, dilute cell suspension to 1 million cells/mL with the appropriate volume of Cell Culture Media. • 6) Dispense the cell suspension into a sterile, disposable reservoir for future use.
Procedures for preparation of compounds and anti-human CD3/CD28 (Day 0): • 1. Compound preparation • Compound serial dilution (source plate 1000×) • Compounds are solubilized in 100% DMSO to a concentration of 10 mM. Then they were 3-fold serially diluted to 8-point doses. • 4× Compound dose preparation (inter plate: Corning-3599): • Prepare 4× compound solution in culture medium. Pipet up and down. For the ZPE control, prepare 0.4% DMSO (4×) in culture medium. For the HPE control, prepare 0.4 µM of RGT003-026 (4×) in culture medium. • 2. Anti-human CD3 (stock conc. 6.76 mg/ml): stored at 4° C. • 1) Dilute anti-human CD3 with PBS to final conc. of 0.5 µg/mL. • 2) Add 50 µL /well of CD3 to each well, except for the positive and negative control wells. […] Rinse each well twice with 200 µL of sterile PBS each time. • 3. […]

Sequence of HPK1 (Q92918 whole entry): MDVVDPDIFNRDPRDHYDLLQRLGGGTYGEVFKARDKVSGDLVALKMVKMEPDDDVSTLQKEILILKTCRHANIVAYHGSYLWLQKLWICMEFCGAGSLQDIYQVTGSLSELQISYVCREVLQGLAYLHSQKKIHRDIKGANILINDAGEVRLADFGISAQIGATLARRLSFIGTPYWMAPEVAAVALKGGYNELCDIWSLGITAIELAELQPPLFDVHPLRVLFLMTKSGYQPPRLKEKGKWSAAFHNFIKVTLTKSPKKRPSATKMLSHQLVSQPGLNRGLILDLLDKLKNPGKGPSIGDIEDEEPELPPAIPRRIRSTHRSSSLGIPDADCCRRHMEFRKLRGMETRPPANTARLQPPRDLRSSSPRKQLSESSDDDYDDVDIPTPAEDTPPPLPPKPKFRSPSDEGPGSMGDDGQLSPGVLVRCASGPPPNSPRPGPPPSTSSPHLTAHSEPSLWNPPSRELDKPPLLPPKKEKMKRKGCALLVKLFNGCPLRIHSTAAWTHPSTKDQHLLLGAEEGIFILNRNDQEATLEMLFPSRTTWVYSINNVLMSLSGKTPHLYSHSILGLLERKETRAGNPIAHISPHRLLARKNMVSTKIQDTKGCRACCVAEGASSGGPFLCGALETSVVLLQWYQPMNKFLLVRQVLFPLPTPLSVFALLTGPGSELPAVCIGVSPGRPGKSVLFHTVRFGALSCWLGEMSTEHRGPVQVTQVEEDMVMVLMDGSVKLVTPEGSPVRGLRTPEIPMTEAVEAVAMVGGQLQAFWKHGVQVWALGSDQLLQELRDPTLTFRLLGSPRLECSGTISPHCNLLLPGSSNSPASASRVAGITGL

| SMILES | IC50 (HPK1) [nM] | EC50 (Human Pan T cells) [nM] | Human Pan T cells EC2x (nM, IL-2) (Human Pan T cells) | Max fold change (Human Pan T cells) | EC50 (Human Pan T cells; Homo sapiens, T-cell) [nM] |
| --- | --- | --- | --- | --- | --- |
| COc1cc2c(cc1Nc1ncc(Cl)c(N3C[C@@](C)(CC(=O)O)c4ccccc43)n1)CN(C)CC2 (single isomer, unassigned) [Example 3, (S)-2-(1-(5-chloro-2-((6-methoxy-2-methyl-1,2,3,4-tetrahydroisoquinolin-7-yl)amino)pyrimidin-4-yl)-3-methylindolin-3-yl)acetic acid or (R)-2-(1-(5-chloro-2-((6-methoxy-2-methyl-1,2,3,4-tetrahydroisoquinolin-7-yl)amino)pyrimidin-4-yl)-3-methylindolin-3-yl)acetic acid] | 24 | 911 | > 5760 (N = 2) nM | 1.96 (N = 2) |  |
| COc1cc2c(cc1Nc1ncc(Cl)c(N3CC(C)(CC(=O)O)c4cc(F)ccc43)n1)CN(C)CC2 (centres unmarked) [Compound 9, reference compound] | 1.1 |  | 62 (N = 2) nM | 3.24 (N = 2) | 68 |

Source: US20230339896A1, “HPK1 INHIBITORS AND USES THEREOF” (QILU REGOR THERAPEUTICS INC., priority 2020, published 2023)
